# Laboratory results as given in patent publication US20210000792A1, “METHODS FOR REDUCING OR PREVENTING CARDIOVASCULAR EVENTS IN PATIENTS WITH TYPE II DIABETES MELLITUS” (Janssen Pharmaceutica NV, priority 2017, published 2021).
# Legend:
# [1] = tested on: men and women with type 2 diabetes and history or high risk of cardiovascular disease; experiment: CANVAS clinical trial, canagliflozin 300 mg or 100 mg versus placebo; type: in vivo, human
# Excerpt: (§1) Two clinical trials were completed to assess the cardiovascular safety and efficacy of canagliflozin, and how any potential benefits might balance against known risks. The complete protocols for said trials, name CANVAS and CANVAS-R, which protocols are each incorporated in their entirety herein, may be found on www.clinicaltrials.gov (more specifically at the following urls: https://clinicaltrials.gov/ct2/show/NCT01032629?term=canvas&rank=1 and https://clinicaltrials.gov/ct2/show/NCT01989754?term=canvas-r&rank=1, respectively).
# (§2) All potential participants completed a 2-week, single-blind, placebo run-in period. Randomization was done centrally through an interactive web response system using a computer-generated randomization schedule prepared by the study sponsor using randomly permuted blocks. Participants in CANVAS were randomly assigned in a 1:1:1 ratio to canagliflozin 300 mg, canagliflozin 100 mg, or matching placebo, and participants in CANVAS-R were randomly assigned in a 1:1 ratio to canagliflozin or matching placebo administered at an initial dose of 100 mg daily with optional up-titration to 300 mg from week 13. Participants and all study staff were masked to individual treatment allocations until the completion of the study. Use of other background therapy for glycemic management and other risk factor control was according to best practice instituted in line with local guidelines including Renin Angiotensin System (RAS) blockade.
# (§3) Post-randomization, face-to-face follow-up was scheduled for 3 visits in the first year and at 6-month intervals thereafter, with alternating telephone follow-up between face-to-face assessments. Every follow-up included inquiry about primary and secondary outcome events and serious adverse events. Urinary albumin:creatinine ratio was measured every 26 weeks in CANVAS-R, and at Week 12 and then annually in CANVAS. Serum creatinine measurement with estimation of glomerular filtration rate (eGFR) was performed at least every 26 weeks in both trials. Individuals that prematurely discontinued study treatment continued scheduled follow-up wherever possible, with extensive efforts made to obtain full outcome data for all during the final follow-up window that spanned November 2016 to February 2017.
# (§4) The primary outcome was a composite of cardiovascular mortality, nonfatal myocardial infarction, or nonfatal stroke. Secondary outcomes were total mortality; cardiovascular mortality; progression of albuminuria; and the composite of cardiovascular mortality and hospitalization for heart failure. Progression of albuminuria grade was defined as a more then 30% increase in albuminuria and a switch from either normoalbuminuria to microalbuminuria or macroalbuminuria, or from microalbuminuria to macroalbuminuria. In the event that sequential testing was not significant for all then remaining outcomes were scheduled for assessment as exploratory variables in the integrated dataset.
# (§5) Evaluation of total hospitalizations was also prespecified.
# (§6) All major cardiovascular events, renal outcomes and deaths, plus selected safety outcomes were ratified by Endpoint Adjudication Committees. Intermediate markers of cardiovascular risk and requirement for antihyperglycemic agents were assessed to help understand the observed effects on cardiovascular and renal outcomes. Analyses of safety were of adverse events coded using the latest version of the MedDRA Dictionary. For bone fracture, the primary prespecified analysis was for low-trauma fracture events but secondary analysis of all fractures was also done. Amputations were assessed overall but numbers of cases above and below the ankle were also reported.
# (§7) The primary hypothesis test was of noninferiority for the hazard ratio (HR) for the primary outcome at the margin of 1.3 for all canagliflozin versus placebo using the full integrated dataset and the intent to treat approach. […]
# [2] = tested on: men and women with type 2 diabetes and history or high risk of cardiovascular disease; experiment: CANVAS-R clinical trial, canagliflozin 100 mg with optional up-titration to 300 mg versus placebo; type: in vivo, human
# Excerpt: as §1, §2, §3, §4, §5, §6, §7
# [3] = vs placebo, listed as canagliflozin
compound,measurement,setting,value
"Cc1ccc([C@@H]2O[C@H](CO)[C@@H](O)[C@H](O)[C@H]2O)cc1Cc1ccc(-c2ccc(F)cc2)s1 [Canagliflozin, canagliflozin]","Cardiovascular mortality, nonfatal myocardial infarction, or nonfatal stroke, n/N",[1]; canagliflozin group,425/2888
same,"Hospitalization for heart failure, n/N",[1]; canagliflozin group,85/2888
same,"Nonfatal myocardial infarction, n/N",[1]; canagliflozin group,152/2888
same,"Nonfatal stroke, n/N",[1]; canagliflozin group,106/2888
same,"Progression of albuminuria, n/N",[1]; canagliflozin group,895/2655
same,"Regression of albuminuria, n/N",[1]; canagliflozin group,434/786
same,"Total mortality, n/N",[1]; canagliflozin group,301/2888
same,"40% reduction in eGFR, RRT, or renal death, hazard ratio (95% confidence interval)",[1]; vs placebo,0.56 (0.41-0.75)
same,"40% reduction in eGFR, RRT, renal death or macroalbuminuria, hazard ratio (95% confidence interval)",[1]; vs placebo,0.64 (0.54-0.76)
same,"40% reduction in eGFR, RRT, renal or CV death, hazard ratio (95% confidence interval)",[1]; vs placebo,0.74 (0.62-0.89)
same,"Cardiovascular mortality or hospitalization for heart failure, hazard ratio (95% confidence interval)",[1]; vs placebo,0.82 (0.67-0.99)
same,"Cardiovascular mortality, hazard ratio (95% confidence interval)",[1]; vs placebo,0.88 (0.70-1.10)
same,"Cardiovascular mortality, nonfatal myocardial infarction, or nonfatal stroke, hazard ratio (95% confidence interval)",[1]; vs placebo,0.88 (0.75-1.03)
same,"Hospitalization for heart failure, hazard ratio (95% confidence interval)",[1]; vs placebo,0.77 (0.55-1.08)
same,"Nonfatal myocardial infarction, hazard ratio (95% confidence interval)",[1]; vs placebo,0.85 (0.65-1.11)
same,"Nonfatal stroke, hazard ratio (95% confidence interval)",[1]; vs placebo,0.97 (0.70-1.35)
same,"Progression of albuminuria, hazard ratio (95% confidence interval)",[1]; vs placebo,0.80 (0.72-0.90)
same,"Regression of albuminuria, hazard ratio (95% confidence interval)",[1]; vs placebo,1.56 (1.30-1.87)
same,"Total mortality, hazard ratio (95% confidence interval)",[1]; vs placebo,0.84 (0.70-1.01)
same,"Progression of albuminuria, hazard ratio (95% confidence interval)",[1]; [3],0.80
same,"Albumin:creatinine ratio progression, events per 1000 patient-years",[2],99.80 per 1000 patient-years
same,"Cardiovascular death or hospitalization for heart failure, events per 1000 patient-years",[2],15.85 per 1000 patient-years
same,"Cardiovascular death, events per 1000 patient-years",[2],10.06 per 1000 patient-years
same,"40% reduction in eGFR, RRT, or renal death, n/N",[2]; canagliflozin group,33/2907
same,"40% reduction in eGFR, RRT, renal death or macroalbuminuria, n/N",[2]; canagliflozin group,112/2907
same,"40% reduction in eGFR, RRT, renal or CV death, n/N",[2]; canagliflozin group,93/2907
same,"Cardiovascular mortality or hospitalization for heart failure, n/N",[2]; canagliflozin group,95/2907
same,"Cardiovascular mortality, n/N",[2]; canagliflozin group,61/2907
same,"Cardiovascular mortality, nonfatal myocardial infarction, or nonfatal stroke, n/N",[2]; canagliflozin group,160/2907
same,"Hospitalization for heart failure, n/N",[2]; canagliflozin group,38/2907
same,"Nonfatal myocardial infarction, n/N",[2]; canagliflozin group,63/2907
same,"Nonfatal stroke, n/N",[2]; canagliflozin group,52/2907
same,"Progression of albuminuria, n/N",[2]; canagliflozin group,446/2541
same,"Regression of albuminuria, n/N",[2]; canagliflozin group,451/893
same,"Total mortality, n/N",[2]; canagliflozin group,99/2907
same,"40% reduction in eGFR, RRT, or renal death, hazard ratio (95% confidence interval)",[2]; vs placebo,0.71 (0.45-1.11)
same,"40% reduction in eGFR, RRT, renal death or macroalbuminuria, hazard ratio (95% confidence interval)",[2]; vs placebo,0.48 (0.38-0.60)
same,"40% reduction in eGFR, RRT, renal or CV death, hazard ratio (95% confidence interval)",[2]; vs placebo,0.82 (0.62-1.08)
same,"Cardiovascular mortality or hospitalization for heart failure, hazard ratio (95% confidence interval)",[2]; vs placebo,0.72 (0.55-0.94)
same,"Cardiovascular mortality, hazard ratio (95% confidence interval)",[2]; vs placebo,0.86 (0.61-1.22)
same,"Cardiovascular mortality, nonfatal myocardial infarction, or nonfatal stroke, hazard ratio (95% confidence interval)",[2]; vs placebo,0.82 (0.66-1.01)
same,"Hospitalization for heart failure, hazard ratio (95% confidence interval)",[2]; vs placebo,0.56 (0.38-0.83)
same,"Nonfatal myocardial infarction, hazard ratio (95% confidence interval)",[2]; vs placebo,0.85 (0.61-1.19)
same,"Nonfatal stroke, hazard ratio (95% confidence interval)",[2]; vs placebo,0.82 (0.57-1.18)
same,"Progression of albuminuria, hazard ratio (95% confidence interval)",[2]; vs placebo,0.64 (0.57-0.73)
same,"Regression of albuminuria, hazard ratio (95% confidence interval)",[2]; vs placebo,1.80 (1.55-2.09)
same,"Total mortality, hazard ratio (95% confidence interval)",[2]; vs placebo,0.92 (0.70-1.21)
same,"Progression of albuminuria, hazard ratio (95% confidence interval)",[2]; [3],0.64
